Data as given in patent US9309247B2, “2-substituted imidazo[4,5-D]phenanthroline derivatives and their use in the treatment of cancer” (Aptose Biosciences Inc., priority 2013, dated 2016).

Legend:
[1] = tested on: human prostate cancer cell DU14; assay: XTT cell proliferation assay, DU14; type: cell-based; conditions: 5 days incubation, read-out: Antiproliferative activity, Pros. DU14
Protocol: (§1) Exemplary compounds 1-8 were tested for anti-cancer activity in vitro using human renal cancer cells (ACHN and CAK-1), human pancreatic cells (BXPC3 and SU-86-86), human prostate cancer cell (DU14), human colon carcinoma cells (HT-29 and KM-12), leukemia cells (HL60), brain cancer/tumour cells (SK-A-AS, U87-MG), and human non-small cell lung cancer cells (H460). Compounds 1-8 are the specific embodiments of Formula (I) and Formula (IV) as described above in this application.
(§2) The cells were maintained as a monolayer in a growth medium; McCoy's 5A modified medium (Sigma, St. Louis, Mo.), supplemented with 2 mM L-glutamine (Gibco, Grand Island, N.Y.), 10% fetal bovine serum (FBS) (Multicell, WISENT Inc. St-Bruno, QC), antibiotic-antimycotic (Multicell), at 37° C. in a 5% CO2-humidified incubator. Cells were transferred onto 150 mm tissue culture plates and grown until sub-confluency (70-80%) prior to their use. The in vitro antiproliferative activity of compounds was evaluated by incubating the cells with varying concentrations of exemplary compounds as shown in Table 1 for 5 days. The efficacy of these compounds in this cell proliferation assay was measured based in the ability of live cells to reduce the tetrazolium salt XTT to orange colored compounds of formazan (XTT cell proliferation kit IT, Roche Applied Science, Montreal, QC).

[2] = tested on: panel of human and mouse lymphoma cell lines; assay: Cell growth inhibition, whole lymphoma panel (mean IC50, mean rank); type: cell-based; conditions: mean over six lymphoma cell lines
Protocol: (§3) In this study, compounds 1-8 were screened in vitro against a panel of four mouse lymphoma cell lines and two human lymphoma cell line for cell growth inhibition activity. Following treatment, half maximal inhibitory concentrations (IC50) were determined with the objective of selecting the most efficacious compounds for evaluation of in vitro absorption, distribution, metabolism, and excretion (ADME) screening.
(§4) Cells were subcultured and 4×10^3 cells (in 50 μL) were transferred to each well in a Falcon 96-well tissue culture plate. Exemplary compounds were dissolved in pure dimethyl sulphoxide (DMSO) at a concentration of 10 mM. From this 10 mM stock solution, 12 successive serial dilutions were made in DMSO (2.5 fold dilutions), ranging from 0.52 μM to 10 mM. Using these stock dilutions, 5 μL of each were added to 500 μL of media, and 50 μL of this was added to the cells. The final concentrations being tested ranged from 0.0026 μM to 50 μM. Each concentration was tested in triplicate, and DMSO and untreated cells were also included as controls. After five days of incubation with the compounds, cell viability was determined using the XTT cell proliferation kit (Roche, Cat. No. 11 465 015 001). Following the XTT protocol, 4.5-24 hours after addition of the reagent, the plates were read in a μQuant 96-well plate spectrophotometer (Biotek Instruments Inc.) and the results analyzed to determine the IC50.
In vitro potency was assessed using eight exemplary compounds against a panel of human and mouse lymphoma cell lines (Table 4). […] To compare the efficacy of the compounds in cell growth inhibition across the entire panel of cell lines screened, the eight compounds were ranked according to efficacy against each cell line with a numerical value of one indicating most efficacious (lowest IC50 value) and eight being the least efficacious (highest IC50 value).

[3] = tested on: human colon adenocarcinoma cells HT-29; assay: Colon carcinoma (HT-29) xenograft model; type: in vivo, CD-1 female nude mice; conditions: 50 mg/kg/d, five days on, 2 day break, 5 weeks, vs vehicle-treated control, FIG. 1
Protocol: (§5) The ability of compound 1 to inhibit colon tumour growth in vivo was tested as follows. CD-1 female nude mice (7 mice per treatment group, 6-7 weeks) were injected […] with human colon adenocarcinoma cells HT-29 cells (3×10^6 cells in 0.1 ml PBS). Treatment of the mice with vehicle or 50 mg/kg/d of […] was initiated 5 days post-inoculation (size of tumours=20-40 mm^3) for 7-day cycles of five days followed by a 2 day break for 5 weeks. The size of the tumours was measured over the course of the experiment using calipers, and the weight of the tumours was measured after the animals were sacrificed.

[4] = tested on: pancreatic cancer (BxPC-3); assay: Pancreatic cancer (BxPC-3) xenograft model; type: in vivo, CD-1 female nude mice; conditions: pancreatic carcinoma BxPC-3; vs vehicle-treated control; FIG. 5
Protocol: as §5
The ability of compound 1 to inhibit renal cell carcinoma growth (see FIG. 4), to inhibit pancreatic carcinoma growth (FIG. 5), to inhibit large-cell lung carcinoma cell growth (FIG. 6), and to inhibit Glioblastoma cell growth (FIG. 7) was also tested following the general procedure as discussed above.

[5] = tested on: EL4 (mouse, lymphoma); assay: Cell growth inhibition assay, EL4; type: cell-based; conditions: five days of incubation, XTT; read-out: IC50 EL4 (ms)
Protocol: as §3
Similarly, human Burkitt's lymphoma Ramos cells (ATCC CRL-1596) were grown in suspension in Roswell Park Memorial Institute (RPMI) 1640 medium supplemented with 10% fetal bovine serum (FBS), 10 mM HEPES KOH pH 7.4, and 2 mM sodium pyruvate. Mouse P388D1 (ATCC CCL-46) and WR19L (ATCC TIB-52) cells were grown in suspension in Dulbecco's Modified Eagle Medium (DMEM) with 10% fetal bovine serum (FBS), 10 mM HEPES, and 2 mM sodium pyruvate. Mouse WEHI231 (ATCC CRL-1702) and EL4 (ATCC TIB-39) cells were grown in suspension in DMEM with 10% fetal bovine serum (FBS), 10 mM HEPES KOH pH 7.4, 2 mM sodium pyruvate, and 0.05 mM β-mercaptoethanol. All cells were maintained at 37° C. in an atmosphere of 5% CO2 in air. Logarithmically growing cells were routinely sub-cultured twice weekly. Briefly, cells were collected by centrifugation, resuspended in pre-warmed media, and diluted 1:10 into a 75 cm^2 flask.
as §4

[6] = tested on: colon carcinoma SW-620 cells; assay: Colon carcinoma (SW-620) xenograft model; type: in vivo, CD-1 female nude mice; conditions: vs vehicle-treated control, FIG. 3
Protocol: as §5
Similar tests were conducted with colon carcinoma KM-12 cells and colon carcinoma SW-620 cells.

[7] = tested on: Human Burkitt's lymphoma Raji cells; assay: Cell growth inhibition assay, Raji; type: cell-based; conditions: five days of incubation, XTT; read-out: IC50 Raji (hs)
Protocol: as §3
Human Burkitt's lymphoma Raji cells (ATCC CCL-86) were grown in suspension in Roswell Park Memorial Institute (RPMI) 1640 medium supplemented with 10% fetal bovine serum (FBS), 10 mM HEPES KOH pH 7.4, and 2 mM sodium pyruvate at 37° C. in an atmosphere of 5% CO2 in air. Logarithmically growing cells were routinely sub-cultured twice weekly. Briefly, cells were collected by centrifugation, resuspended in pre-warmed media, and diluted 1:10 into a 75 cm^2 flask.
as §4

[8] = tested on: human renal cancer cells CAKI-1; assay: XTT cell proliferation assay, CAKI-1; type: cell-based; conditions: 5 days incubation, read-out: Antiproliferative activity, Kidney CAKI-1
Protocol: as §1, §2

[9] = tested on: human pancreatic cells BXPC3; assay: XTT cell proliferation assay, BXPC3; type: cell-based; conditions: 5 days incubation, read-out: Antiproliferative activity, Pancreas BXPC3
Protocol: as §1, §2

- IC50 [1]: 170 nM
- IC50 [2]: 209 nM
- IC50 [5]: 483 nM
- IC50 [7]: 153 nM
- IC50 [8]: 156 nM
- IC50 [9]: 180 nM
Compound: FC1(F)Oc2ccc(-c3nc4c5cccnc5c5ncccc5c4[nH]3)cc2O1 [Compound 1]
- inhibition of tumour growth, as measured by tumour size [3]: able to inhibit tumour growth
- inhibition of tumour growth, as measured by tumour size [4]: able to inhibit tumour growth
- inhibition of tumour growth, as measured by tumour size [6]: able to inhibit tumour growth
